The values that follow come from ChEMBL document CHEMBL2417463, “Synthesis and identification of new flavonoids targeting liver X receptor β involved pathway as potential facilitators of Aβ clearance with reduced lipid accumulation” (J Med Chem, 2013).

Format in all cases: cell-based
The target of data set [1] is T1, Oxysterols receptor LXR-beta (Homo sapiens) (UniProt P55055).
T1 sequence (whole entry): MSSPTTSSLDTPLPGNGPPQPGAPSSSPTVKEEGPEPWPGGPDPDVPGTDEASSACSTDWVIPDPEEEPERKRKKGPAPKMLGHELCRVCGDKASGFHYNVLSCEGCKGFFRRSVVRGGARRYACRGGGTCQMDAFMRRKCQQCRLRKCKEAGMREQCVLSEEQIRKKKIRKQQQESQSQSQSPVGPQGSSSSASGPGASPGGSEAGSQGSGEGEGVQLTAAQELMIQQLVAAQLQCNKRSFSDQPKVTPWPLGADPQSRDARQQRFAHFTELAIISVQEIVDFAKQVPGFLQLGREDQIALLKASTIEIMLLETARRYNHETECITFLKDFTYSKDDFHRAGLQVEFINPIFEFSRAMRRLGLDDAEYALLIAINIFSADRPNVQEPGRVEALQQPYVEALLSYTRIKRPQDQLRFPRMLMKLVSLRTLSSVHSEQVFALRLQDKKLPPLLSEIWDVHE
In words: Agonist activity at human LXRbeta transfected in HEK293 cells at 0.1 uM after 24 hrs by luciferase reporter gene assay relative to vehicle-treated control. A general note: A reporter such as luciferase makes a cellular process visible.

Data set [2] addresses T2, Oxysterols receptor LXR-alpha (Homo sapiens) (UniProt Q13133).
T2 sequence (whole entry): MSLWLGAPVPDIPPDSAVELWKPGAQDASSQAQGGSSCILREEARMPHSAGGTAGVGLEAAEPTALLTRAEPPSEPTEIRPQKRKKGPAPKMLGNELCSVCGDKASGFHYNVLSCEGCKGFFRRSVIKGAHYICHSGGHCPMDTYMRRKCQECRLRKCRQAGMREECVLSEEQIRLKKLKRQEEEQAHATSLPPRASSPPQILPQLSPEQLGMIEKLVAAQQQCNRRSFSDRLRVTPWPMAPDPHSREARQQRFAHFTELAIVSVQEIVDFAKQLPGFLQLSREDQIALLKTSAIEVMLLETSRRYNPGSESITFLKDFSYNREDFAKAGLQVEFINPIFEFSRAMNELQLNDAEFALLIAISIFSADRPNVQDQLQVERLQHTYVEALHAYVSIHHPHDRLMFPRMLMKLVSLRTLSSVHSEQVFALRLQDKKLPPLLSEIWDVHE
Put plainly: Agonist activity at human LXRalpha transfected in HEK293 cells at 1 uM after 24 hrs by luciferase reporter gene assay relative to vehicle-treated control.

For data set [3], the target named is T2, Oxysterols receptor LXR-alpha (Homo sapiens). Put plainly: Agonist activity at human LXRalpha transfected in HEK293 cells at 0.1 uM after 24 hrs by luciferase reporter gene assay relative to vehicle-treated control.
Data set [4] has as its target T3, Oxysterols receptor LXR-beta (Mus musculus) (UniProt Q60644).
T3 sequence (whole entry): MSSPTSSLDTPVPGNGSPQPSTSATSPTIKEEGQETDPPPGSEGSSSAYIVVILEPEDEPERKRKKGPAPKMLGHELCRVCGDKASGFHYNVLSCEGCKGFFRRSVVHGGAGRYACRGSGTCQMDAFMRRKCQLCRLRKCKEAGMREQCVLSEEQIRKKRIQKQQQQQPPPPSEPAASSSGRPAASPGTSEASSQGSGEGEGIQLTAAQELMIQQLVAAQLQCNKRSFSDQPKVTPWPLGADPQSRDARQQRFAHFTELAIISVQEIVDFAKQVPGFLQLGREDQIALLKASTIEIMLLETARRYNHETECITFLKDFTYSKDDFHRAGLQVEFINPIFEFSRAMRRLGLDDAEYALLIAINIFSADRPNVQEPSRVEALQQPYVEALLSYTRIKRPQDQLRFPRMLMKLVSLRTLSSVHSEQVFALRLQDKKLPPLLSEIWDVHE
In words: Agonist activity at LXRbeta in mouse RAW264.7 cells assessed as induction of ABCA1 promoter activation at 1 uM after 24 hrs by Dual-Glo luciferase reporter gene assay relative to vehicle-treated control.

The test system of data set [5] is HepG2. In words: Induction of cytoplasmic lipid accumulation in human HepG2 cells at 1 uM after 4 days by oil red O staining-based light microscopic analysis. Conditions: hepg2, 96 h.
The test system of data set [6] is HepG2. In words: Induction of intracellular triglyceride accumulation in human HepG2 cells at 10 uM after 4 days relative to vehicle-treated control. Conditions: hepg2, 96 h.
Data set [7] deals with HepG2. Put plainly: Induction of intracellular triglyceride accumulation in human HepG2 cells at 1 uM after 4 days relative to vehicle-treated control. As to conditions: hepg2, 96 h.
For data set [8], the target named is T3, Oxysterols receptor LXR-beta (Mus musculus). In words: Agonist activity at LXRbeta in mouse BV2 cells assessed as degradation of intracellular soluble amyloid beta42 at 1 uM preincubated for 18 hrs followed by soluble amyloid beta42 addition measured after 24 hrs by ELISA relative to vehicle-treated control. Conditions: BV-2.
In data set [9] the target is T1, Oxysterols receptor LXR-beta (Homo sapiens). Put plainly: Agonist activity at human LXRbeta transfected in HEK293 cells at 1 uM after 24 hrs by luciferase reporter gene assay relative to vehicle-treated control.
The next data set concerns HEK293. In words: Cytotoxicity against HEK293 cells assessed as inhibition of cell viability at 50 uM after 48 hrs by SRB assay relative to vehicle-treated control. As to conditions: human, hek293, 48 h. A general note: In SRB staining, fixed cells bind dye roughly in proportion to their protein.
Data set [10] can be described thus: Cytotoxicity against human HepG2 cells assessed as inhibition of cell viability at 50 uM after 48 hrs by SRB assay relative to vehicle-treated control. Conditions: HepG2 cells, read-out: Activity.
A further data set deals with BV-2. Put plainly: Cytotoxicity against mouse BV2 cells assessed as inhibition of cell viability at 50 uM after 48 hrs by SRB assay relative to vehicle-treated control. Conditions: bv-2, 48 h.
The subject of a further data set is RAW264.7. In words: Cytotoxicity against mouse RAW264.7 cells assessed as inhibition of cell viability at 50 uM after 48 hrs by SRB assay relative to vehicle-treated control. Conditions: raw264.7, 48 h.
The test system of data set [11] is HepG2. In words: Induction of cytoplasmic lipid accumulation in human HepG2 cells at 10 uM after 4 days by oil red O staining-based light microscopic analysis. Conditions: hepg2, 96 h.
Data set [12] concerns the target T3, Oxysterols receptor LXR-beta (Mus musculus). In words: Agonist activity at LXRbeta in mouse BV2 cells assessed as upregulation of apoE protein expression at 1 uM after 48 hrs by Western blot analysis relative to vehicle-treated control. Conditions: BV-2. A general note: Immunoblotting shows a protein as a band on a membrane.
Data set [13] has the same target. Put plainly: Agonist activity at LXRbeta in mouse BV2 cells assessed as upregulation of apoE protein expression at 0.1 uM after 48 hrs by Western blot analysis relative to vehicle-treated control. As to conditions: BV-2.
Data set [14] shares this target. Put plainly: Agonist activity at LXRbeta in mouse BV2 cells assessed as upregulation of ABCA1 protein expression after 12 to 48 hrs by Western blot analysis. Conditions: BV-2.
Data set [15] shares this target. Put plainly: Agonist activity at LXRbeta in mouse BV2 cells assessed as upregulation of ABCA1 protein expression at 1 uM after 12 to 48 hrs by Western blot analysis. As to conditions: BV-2.
The target is the same in data set [16]. In words: Agonist activity at LXRbeta in mouse RAW264.7 cells assessed as upregulation of ABCA1 protein expression after 18 to 48 hrs by Western blot analysis.
The target is the same in data set [17]. Put plainly: Agonist activity at LXRbeta in mouse RAW264.7 cells assessed as upregulation of ABCA1 protein expression at 1 uM after 18 to 48 hrs by Western blot analysis.

Each structure is given as a SMILES string. Active and inactive are the calls of the source. The rule behind the calls is not given here.

With `O=C(O)Cc1cccc(OCCCN(Cc2cccc(C(F)(F)F)c2Cl)CC(c2ccccc2)c2ccccc2)c1`, the fold change (FC) came to 1.42 in data set [1]; 2.38 in [2]; 1.53 in [3]; 1.83 in data set [4]; 1.86 in data set [9]. The Activity result in the data set with HepG2 [5] is “Toxic”; with HepG2 [6], 242%; in the data set with HepG2 [7], 43%; in data set [8], 55%.

For the molecule `O=S(=O)(c1ccccc1)N(CC(F)(F)F)c1ccc(C(O)(C(F)(F)F)C(F)(F)F)cc1` [T091317], the Activity result in the data set with HepG2 [5] is “Toxic”; in the data set on HepG2 [7] it was 175%.

With `O=c1cc(-c2c[nH]c3ccccc23)oc2cc(O)ccc12`, the fold change (FC) was 1.19 in data set [1]; 1.02 in data set [2]; 1.32 in [3]; 1.9 in data set [4]; 1.4 in data set [12]; 1.1 in data set [13]. Also, the fold change (FC) in data set [9] was determined as 1.76. In addition, the Activity entry with HEK293 is given as “Non-toxic”; in the data set with BV-2, “Non-toxic”; with RAW264.7, “Non-toxic”; in the data set with HepG2 [11], “Toxic”; in the data set on HepG2 [6] it was 18%; with HepG2 [7], -6%. Also, the Activity is 38% in data set [8], “Dose-dependent effect” in data set [14] and “Dose-dependent effect” in data set [16]. Also, in [10], the inhibition at 48 h, 50 µM was 45%. The outcome in data set [15] and in [17] was Active.
